ChEMBL document CHEMBL5154865, “Antibiotic natural product hunanamycin A: Lead identification towards anti-Salmonella agents” (Eur J Med Chem, 2022)
≈ marks a conversion by molar mass, not a printed value. One block for each compound: values may come before it.

Tests used:
[1] = test system: Salmonella enterica; test: Antibacterial activity against Salmonella enterica ATCC 6539 assessed as microbial cell viability incubated for 24 hr by quantification of ATP multimode plate reader method; format: functional
[2] = Solubility of compound in DMSO at pH 10.2 after 5 mins measured by HPLC analysis; format: physicochemical
[3] = Solubility of compound in DMSO at pH 2.2 after 5 mins measured by HPLC analysis; format: physicochemical
[4] = Metabolic stability in human liver microsomes measured at 1 uM after 30 mins by LC-MS/MS analysis; format: ADME, Microsome; conditions: read-out: Stability
[5] = Metabolic stability in mouse liver microsomes measured at 1 uM after 30 mins by LC-MS/MS analysis; format: ADME, Microsome; conditions: read-out: Stability
[6] = Stability in human plasma measured after 60 mins LC-MS/MS analysis; format: ADME, cell-free; conditions: read-out: Stability
[7] = Solubility of compound in DMSO at pH 7.4 after 5 mins measured by HPLC analysis; format: physicochemical
[8] = Solubility of compound in DMSO at pH 1.2 after 5 mins measured by HPLC analysis; format: physicochemical
[9] = Solubility of compound in DMSO at pH 4.5 after 5 mins measured by HPLC analysis; format: physicochemical
[10] = Plasma protein binding in human measured at 150 uM preincubated for 30 mins followed by addition of dialysis buffer measured after 4 hrs by LC-MS/MS analysis; format: ADME, cell-free; conditions: read-out: PPB (converted)
[11] = Acute toxicity in Swiss albino mouse assessed as lethal dose administered orally daily for 14 days; conditions: in vivo, route po, time 14 day
[12] = Acute toxicity in Swiss albino mouse assessed as mortality at 2 g/Kg, po administered daily for 14 days; format: organism-based; conditions: in vivo, 2000 mg/kg, 336 h, time 14 day

Structure (SMILES): CC1(C)CCn2c(=O)c(=O)n(CCO)c3cccc1c32
MIC [1]: 24 µg/mL (≈ 87.5 µM)

Structure (SMILES): Cc1cc2c3c(c1C)C(C)(C)CCn3c(=O)c(=O)n2C[C@H](O)[C@H](O)[C@H](O)CO
MIC [1]: 8 µg/mL (≈ 20.4 µM)
solubility at 5 min [2]: 49.3 µM (≈ 19.3 µg/mL)
solubility at 5 min [3]: 50.4 µM (≈ 19.8 µg/mL)
remaining at 0.5 h, 1 µM [4]: 100%
remaining at 0.5 h, 1 µM [5]: 99.6%
remaining at 1 h [6]: 100%
solubility at 5 min [7]: 49.4 µM (≈ 19.4 µg/mL)
solubility at 5 min [8]: 50.8 µM (≈ 19.9 µg/mL)
solubility at 5 min [9]: 50 µM (≈ 19.6 µg/mL)
fraction unbound at 4 h, 150 µM [10]: 0.412
LD50 at 336 h [11]: > 2000 mg/kg
Activity [12]: Non-Toxic

Structure (SMILES): CC1(C)CCn2c(=O)n(Cc3nn[nH]n3)c3cccc1c32
MIC [1]: > 32 µg/mL

Structure (SMILES): CO[C@@H]1O[C@H](Cn2cc(Cn3c(=O)c(=O)n4c5c(cccc53)C(C)(C)CC4)nn2)[C@H]2OC(=O)O[C@@H]12
MIC [1]: 32 µg/mL (≈ 66.2 µM)

Structure (SMILES): CO[C@@H]1O[C@H](Cn2c(=O)n3c4c(cccc42)C(C)(C)CC3)[C@H]2OC(=O)O[C@@H]12
MIC [1]: 32 µg/mL (≈ 85.5 µM)

Structure (SMILES): CO[C@@H]1O[C@H](Cn2cc(Cn3c(=O)c(=O)n4c5c(cccc53)C(C)(C)CC4)nn2)[C@@H](O)[C@H]1O
MIC [1]: 32 µg/mL (≈ 69.9 µM)

Structure (SMILES): Cc1cc2c(cc1C)n(C[C@H](O)[C@H](O)[C@H](O)CO)c(=O)c(=O)n2CC=C1CCCCC1
MIC [1]: 32 µg/mL (≈ 74 µM)

Structure (SMILES): CC1(C)CCn2c(=O)n(Cc3cn(C[C@H](O)[C@H](O)[C@H](O)CO)nn3)c3cccc1c32
MIC [1]: 32 µg/mL (≈ 76.7 µM)

Structure (SMILES): Cc1cc2[nH]c(=O)c(=O)n(C[C@H](O)[C@H](O)[C@H](O)CO)c2cc1C
MIC [1]: > 32 µg/mL

Structure (SMILES): CC1(C)CCn2c(=O)c(=O)n(CCCCO)c3cccc1c32
MIC [1]: 32 µg/mL (≈ 106 µM)

Structure (SMILES): CC1(C)CCn2c(=O)c(=O)n(CC(N)=O)c3cccc1c32
MIC [1]: 24 µg/mL (≈ 83.5 µM)

Structure (SMILES): CC1(C)CCn2c(=O)n(CCCO)c3cccc1c32
MIC [1]: > 32 µg/mL

Structure (SMILES): CC1(C)CCn2c(=O)c(=O)n(Cc3ccccc3)c3cccc1c32
MIC [1]: 32 µg/mL (≈ 99.9 µM)

Structure (SMILES): CO[C@@H]1O[C@H](Cn2c(=O)c(=O)n3c4c(cccc42)C(C)(C)CC3)[C@@H](O)[C@H]1O
MIC [1]: 16 µg/mL (≈ 42.5 µM)

Structure (SMILES): CO[C@@H]1O[C@H](Cn2c(=O)n3c4c(cccc42)C(C)(C)CC3)[C@@H](OC)[C@H]1OC
MIC [1]: > 32 µg/mL

Structure (SMILES): CC1(C)CCn2c(=O)c(=O)n(CC(=O)O)c3cccc1c32
MIC [1]: 16 µg/mL (≈ 55.5 µM)

Structure (SMILES): C=CCn1c(=O)c(=O)n(C[C@H](O)[C@H](O)[C@H](O)CO)c2cc(C)c(C)cc21
MIC [1]: 16 µg/mL (≈ 43.9 µM)

Structure (SMILES): CC1(C)CCn2c(=O)c(=O)[nH]c3cccc1c32
MIC [1]: 16 µg/mL (≈ 69.5 µM)

Structure (SMILES): CC1(C)CCn2c(=O)n(C[C@H](O)[C@@H](O)CO)c3cccc1c32
MIC [1]: 16 µg/mL (≈ 52.2 µM)

Structure (SMILES): CCn1c(=O)c(=O)n(C[C@H](O)[C@H](O)[C@H](O)CO)c2cc(C)c(C)cc21
MIC [1]: > 32 µg/mL

Structure (SMILES): C#CCn1c(=O)c2cccc3c2n(c1=O)CCC3(C)C
MIC [1]: 24 µg/mL (≈ 89.4 µM)

Structure (SMILES): CCOC(=O)Cn1cc(Cn2c(=O)c3cccc4c3n(c2=O)CCC4(C)C)nn1
MIC [1]: > 32 µg/mL

Structure (SMILES): CCCCCn1c(=O)c(=O)n2c3c(cccc31)C(C)(C)CC2
MIC [1]: 32 µg/mL (≈ 107 µM)

Structure (SMILES): CC1(C)CCn2c(=O)c(=O)n(Cc3ccccn3)c3cccc1c32
MIC [1]: 24 µg/mL (≈ 74.7 µM)

Structure (SMILES): CC1(C)CCn2c(=O)c(=O)n(CCCO)c3cccc1c32
MIC [1]: 1 µg/mL (≈ 3.47 µM)
solubility at 5 min [2]: 50.2 µM (≈ 14.5 µg/mL)
solubility at 5 min [3]: 50.8 µM (≈ 14.7 µg/mL)
remaining at 0.5 h, 1 µM [4]: 100%
remaining at 0.5 h, 1 µM [5]: 96.1%
remaining at 1 h [6]: 82.4%
solubility at 5 min [7]: 50.1 µM (≈ 14.5 µg/mL)
solubility at 5 min [8]: 51.2 µM (≈ 14.8 µg/mL)
solubility at 5 min [9]: 50.1 µM (≈ 14.4 µg/mL)
fraction unbound at 4 h, 150 µM [10]: 0.389
LD50 at 336 h [11]: > 2000 mg/kg
Activity [12]: Non-Toxic

Structure (SMILES): CC1(C)CCn2c(=O)n(Cc3cn([C@@H]4O[C@H](CO)[C@@H](O)[C@H]4O)nn3)c3cccc1c32
MIC [1]: 32 µg/mL (≈ 77 µM)

Structure (SMILES): CC1(C)CCn2c(=O)c(OCC(O)CO)nc3cccc1c32 (single isomer, unassigned)
MIC [1]: 16 µg/mL (≈ 52.6 µM)

Structure (SMILES): CO[C@@H]1O[C@H](Cn2cc(Cn3c(=O)c4cccc5c4n(c3=O)CCC5(C)C)nn2)[C@@H](O)[C@H]1O (single isomer, unassigned)
MIC [1]: > 32 µg/mL

Structure (SMILES): CC1(C)CCn2c(=O)n(Cc3cn([C@@H]4OC(CO)C(O)C4O)nn3)c(=O)c3cccc1c32 (single isomer, unassigned)
MIC [1]: > 32 µg/mL

Structure (SMILES): CC1(C)CCn2c(=O)c(=O)n(Cc3cn([C@@H]4OC(CO)C(O)C4O)nn3)c3cccc1c32 (single isomer, unassigned)
MIC [1]: 32 µg/mL (≈ 72.2 µM)

Now from value to compound:

MIC [1]: 16 µg/mL (≈ 40.8 µM)
Structure (SMILES): CC(C)=CCn1c(=O)c(=O)n(C[C@H](O)[C@H](O)[C@H](O)CO)c2cc(C)c(C)cc21

MIC [1]: 16 µg/mL (≈ 49 µM)
Structure (SMILES): Cn1nnc(Cn2c(=O)c(=O)n3c4c(cccc42)C(C)(C)CC3)n1

MIC [1]: 16 µg/mL (≈ 40.3 µM)
Structure (SMILES): CCOC(=O)Cn1cc(Cn2c(=O)c(=O)n3c4c(cccc42)C(C)(C)CC3)nn1

MIC [1]: 16 µg/mL (≈ 48.9 µM)
Structure (SMILES): CC1(C)CCn2c(=O)n(Cc3cn(CCO)nn3)c3cccc1c32

MIC [1]: 8 µg/mL (≈ 25.3 µM)
Structure (SMILES): CCOC(=O)Cn1c(=O)c(=O)n2c3c(cccc31)C(C)(C)CC2

MIC [1]: 16 µg/mL (≈ 43.9 µM)
Structure (SMILES): CC1(C)CCn2c(=O)c(=O)n(C[C@H](O)[C@H](O)[C@H](O)CO)c3cccc1c32

MIC [1]: 16 µg/mL (≈ 39 µM)
Structure (SMILES): CCOC(=O)Cn1c(=O)c(=O)n(C[C@H](O)[C@H](O)[C@H](O)CO)c2cc(C)c(C)cc21

MIC [1]: 4 µg/mL (≈ 12.8 µM)
solubility at 5 min [2]: 51.8 µM (≈ 16.2 µg/mL)
solubility at 5 min [3]: 51.2 µM (≈ 16 µg/mL)
remaining at 0.5 h, 1 µM [4]: 98.9%
remaining at 0.5 h, 1 µM [5]: 96.1%
remaining at 1 h [6]: 99.9%
solubility at 5 min [7]: 51.8 µM (≈ 16.2 µg/mL)
solubility at 5 min [8]: 51.8 µM (≈ 16.2 µg/mL)
solubility at 5 min [9]: 50.5 µM (≈ 15.8 µg/mL)
fraction unbound at 4 h, 150 µM [10]: 0.0205
Structure (SMILES): CC1(C)CCn2c(=O)c(=O)n(Cc3nn[nH]n3)c3cccc1c32

MIC [1]: 16 µg/mL (≈ 57.9 µM)
Structure (SMILES): CC1(C)CCn2c(=O)n(CC(O)CO)c3cccc1c32 (configuration not stated)

MIC [1]: 8 µg/mL (≈ 21.7 µM)
Structure (SMILES): CCOC(=O)Cn1cc(Cn2c(=O)n3c4c(cccc42)C(C)(C)CC3)nn1

MIC [1]: 8 µg/mL (≈ 18.4 µM)
Structure (SMILES): Cc1cc2c(cc1C)n(C[C@H](O)[C@H](O)[C@H](O)CO)c(=O)c(=O)n2CCC1CCCCC1

MIC [1]: 16 µg/mL (≈ 43.9 µM)
Structure (SMILES): CC1(C)CCn2c(=O)c(OC[C@H](O)[C@H](O)[C@H](O)CO)nc3cccc1c32

MIC [1]: 16 µg/mL (≈ 69.5 µM)
Structure (SMILES): CC1(C)CCn2c(=O)[nH]c(=O)c3cccc1c32

MIC [1]: 16 µg/mL (≈ 48.1 µM)
Structure (SMILES): Cc1cc2c3c(c1C)C(C)(C)CCn3c(=O)c(=O)n2CC(O)CO (configuration not stated)

MIC [1]: 2 µg/mL (≈ 5.74 µM)
solubility at 5 min [2]: 48.6 µM (≈ 16.9 µg/mL)
solubility at 5 min [3]: 48.4 µM (≈ 16.8 µg/mL)
remaining at 0.5 h, 1 µM [4]: 90%
remaining at 0.5 h, 1 µM [5]: 74.3%
remaining at 1 h [6]: 98%
solubility at 5 min [7]: 48.5 µM (≈ 16.9 µg/mL)
solubility at 5 min [8]: 41.2 µM (≈ 14.4 µg/mL)
solubility at 5 min [9]: 48.8 µM (≈ 17 µg/mL)
fraction unbound at 4 h, 150 µM [10]: 0.338
Structure (SMILES): CO[C@@H]1O[C@H](Cn2c(=O)n3c4c(cccc42)C(C)(C)CC3)[C@@H](O)[C@H]1O

MIC [1]: 4 µg/mL (≈ 11.9 µM)
solubility at 5 min [2]: 47.6 µM (≈ 16 µg/mL)
solubility at 5 min [3]: 48 µM (≈ 16.1 µg/mL)
remaining at 0.5 h, 1 µM [4]: 100%
remaining at 0.5 h, 1 µM [5]: 96.4%
remaining at 1 h [6]: 99.9%
solubility at 5 min [7]: 47.4 µM (≈ 15.9 µg/mL)
solubility at 5 min [8]: 48.2 µM (≈ 16.2 µg/mL)
solubility at 5 min [9]: 47.8 µM (≈ 16.1 µg/mL)
fraction unbound at 4 h, 150 µM [10]: 0.578
Structure (SMILES): CC1(C)CCn2c(=O)n(C[C@H](O)[C@H](O)[C@H](O)CO)c3cccc1c32

MIC [1]: 8 µg/mL (≈ 20.4 µM)
Structure (SMILES): Cc1cc2nc(OC[C@H](O)[C@H](O)[C@H](O)CO)c(=O)n3c2c(c1C)C(C)(C)CC3

MIC [1]: 8 µg/mL (≈ 26.3 µM)
Structure (SMILES): CC1(C)CCn2c(=O)c(=O)n(CC(O)CO)c3cccc1c32 (configuration not stated)
